The values that follow come from ChEMBL document CHEMBL4152303, “Structure-activity relationships of imidazothiazinones and analogs as antagonists of the cannabinoid-activated orphan G protein-coupled receptor GPR18” (Eur J Med Chem, 2018).

The target in experiment [1] is T1, G-protein coupled receptor 55 (Homo sapiens, UniProt Q9Y2T6). Nature of the experiment: Antagonist activity at recombinant human GPR55 expressed in CHO cells assessed as inhibition of lysophosphatidylinositol-induced beta-arrestin recruitment preincubated for 60 mins followed by lysophosphatidylinositol addition for 90 mins measured for 1 sec by luminescence assay. In kind it is functional, cell-based.
T1 sequence (Q9Y2T6 whole entry): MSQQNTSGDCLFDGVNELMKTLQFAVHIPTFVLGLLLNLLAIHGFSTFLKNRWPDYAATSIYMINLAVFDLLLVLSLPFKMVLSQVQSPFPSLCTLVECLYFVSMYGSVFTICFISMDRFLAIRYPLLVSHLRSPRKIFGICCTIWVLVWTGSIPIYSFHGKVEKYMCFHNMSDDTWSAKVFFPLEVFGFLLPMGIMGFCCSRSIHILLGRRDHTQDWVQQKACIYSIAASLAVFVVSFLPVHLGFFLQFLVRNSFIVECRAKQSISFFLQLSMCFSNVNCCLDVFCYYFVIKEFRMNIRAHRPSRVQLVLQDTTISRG

Experiment [2] has as its target T2, N-arachidonyl glycine receptor (Homo sapiens) (UniProt Q14330).
T2 sequence (whole entry): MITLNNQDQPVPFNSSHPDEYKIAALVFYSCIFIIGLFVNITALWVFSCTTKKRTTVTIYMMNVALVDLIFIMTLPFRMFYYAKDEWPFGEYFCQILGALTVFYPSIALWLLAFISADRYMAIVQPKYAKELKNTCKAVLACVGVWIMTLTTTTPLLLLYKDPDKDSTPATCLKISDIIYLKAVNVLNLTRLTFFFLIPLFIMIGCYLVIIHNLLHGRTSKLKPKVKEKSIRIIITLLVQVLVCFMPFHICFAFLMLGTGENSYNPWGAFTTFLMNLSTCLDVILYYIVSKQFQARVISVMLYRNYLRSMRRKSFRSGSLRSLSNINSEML
Nature of the experiment: Competitive antagonist activity at recombinant human GPR18 expressed in CHO cells assessed as inhibition of delta9-THC-induced beta-arrestin recruitment preincubated for 60 mins followed by delta9-THC addition for 90 mins measured for 1 sec by luminescence assay. Format: functional, cell-based.

The target in another experiment is Cannabinoid receptor 1 (Homo sapiens, UniProt P21554). The experiment can be described thus: Displacement of [3H]CP55940 from recombinant human CB1 receptor expressed in CHO cell membranes after 2 hrs by liquid scintillation counting method. Particulars: for inhibition: concentration not given here.
Chain of Cannabinoid receptor 1 (P21554 whole entry): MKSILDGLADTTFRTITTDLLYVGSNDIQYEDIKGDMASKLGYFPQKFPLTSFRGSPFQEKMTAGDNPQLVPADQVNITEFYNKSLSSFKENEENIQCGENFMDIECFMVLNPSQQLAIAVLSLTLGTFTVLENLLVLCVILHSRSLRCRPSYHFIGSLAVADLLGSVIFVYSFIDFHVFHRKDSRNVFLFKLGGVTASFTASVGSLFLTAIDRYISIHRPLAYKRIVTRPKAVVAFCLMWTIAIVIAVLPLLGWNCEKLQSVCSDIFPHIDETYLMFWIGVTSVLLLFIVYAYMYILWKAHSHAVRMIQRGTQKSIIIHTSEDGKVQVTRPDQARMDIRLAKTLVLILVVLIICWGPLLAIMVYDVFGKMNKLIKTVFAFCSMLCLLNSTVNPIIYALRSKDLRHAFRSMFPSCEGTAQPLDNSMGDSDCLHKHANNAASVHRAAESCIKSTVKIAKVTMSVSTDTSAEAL
Experiment [3] addresses T3, N-arachidonyl glycine receptor (Homo sapiens, UniProt Q14330).
T3 sequence (Q14330 whole entry): T2 sequence (whole entry)
Nature of the experiment: (§1) Agonist activity at recombinant human GPR18 expressed in CHO cells assessed as increase in beta-arrestin recruitment incubated for 60 mins measured for 1 sec by luminescence assay. In kind it is functional, cell-based.

Experiment [4] addresses T2, N-arachidonyl glycine receptor (Homo sapiens). The experiment is described as §1. In kind it is functional, cell-based.
The next experiment addresses Cannabinoid receptor 2 (Homo sapiens, UniProt P34972). Nature of the experiment: Displacement of [3H]CP55940 from recombinant human CB2 receptor expressed in CHO cell membranes after 2 hrs by liquid scintillation counting method. Particulars: for inhibition: concentration not given here.
Experiment [5] has as its target T1, G-protein coupled receptor 55. The experiment can be described thus: Agonist activity at recombinant human GPR55 expressed in CHO cells assessed as increase in beta-arrestin recruitment incubated for 60 mins measured for 1 sec by luminescence assay. In kind it is functional, cell-based.
Experiment [6] deals with T3, N-arachidonyl glycine receptor. The experiment can be described thus: (§2) Antagonist activity at recombinant human GPR18 expressed in CHO cells assessed as inhibition of delta9-THC-induced beta-arrestin recruitment preincubated for 60 mins followed by delta9-THC addition for 90 mins measured for 1 sec by luminescence assay. In kind it is functional, cell-based.
For experiment [7], the target named is T2, N-arachidonyl glycine receptor (Homo sapiens). The description is as §2. Format: functional, cell-based.

Chain of Cannabinoid receptor 2 (P34972 whole entry): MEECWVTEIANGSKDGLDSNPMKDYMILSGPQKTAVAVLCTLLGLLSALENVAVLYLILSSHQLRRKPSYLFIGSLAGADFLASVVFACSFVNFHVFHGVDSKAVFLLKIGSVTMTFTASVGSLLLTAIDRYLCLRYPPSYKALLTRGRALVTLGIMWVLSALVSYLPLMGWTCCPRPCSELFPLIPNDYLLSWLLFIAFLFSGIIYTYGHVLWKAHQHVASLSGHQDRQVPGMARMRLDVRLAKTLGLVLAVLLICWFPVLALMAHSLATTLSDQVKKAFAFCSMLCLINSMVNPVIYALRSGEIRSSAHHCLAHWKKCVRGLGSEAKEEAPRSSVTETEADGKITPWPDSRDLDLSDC

For `O=C1/C(=C/c2cccc(OCCCCCCOc3ccc(Cl)cc3)c2)N=C2SCCCN12`, the 50% inhibitory concentration (IC50) in experiment [1] is over 10 µM; in [6], 650 nM. Moreover, the Imax in experiment [1] came to 37%; in [7], 122%. Also, the Kb in experiment [2] is 626 nM. The pKb in [2] was 6.2. Besides, the Ki on Cannabinoid receptor 1 and on Cannabinoid receptor 2 was over 10 µM in each case. Besides, the EC50 in [3] and in experiment [5] was over 10 µM in each case. Also, the %max was -37% in experiment [4] and -15% in [5]. The inhibition on Cannabinoid receptor 2 worked out at 12%.

Consider `O=C1/C(=C/c2cccc(OCCCCCCOc3ccccc3Cl)c2)N=C2SCCCN12`, for which the IC50 in experiment [1] was 3.41 µM; in experiment [6], over 10000 nM. The Imax came to 79% in experiment [1] and 41% in [7]. Further, the inhibitory constant (Ki) at Cannabinoid receptor 1 and at Cannabinoid receptor 2 was over 10 µM throughout. Besides, the inhibition at Cannabinoid receptor 1 stood at 19%; at Cannabinoid receptor 2 it was 29%. Also, the EC50 in experiment [3] and in experiment [5] was over 10 µM in each case. Also, the %max was determined as 10% in experiment [4] and 0% in experiment [5].

On to `Cc1cccc(C)c1OCCCCCCOc1cccc(/C=C2\N=C3SCCCN3C2=O)c1`, for which the IC50 is over 10 µM in [1] and 10000 nM in experiment [6]. Besides, in experiment [1], the Imax was found to be 32%. Also, the Ki on Cannabinoid receptor 1 and on Cannabinoid receptor 2 was over 10 µM throughout. Also, the inhibition was 13% at Cannabinoid receptor 1, 46% at Cannabinoid receptor 2 and 55% in experiment [7]. Further, the EC50 in experiment [3] and in [5] was over 10 µM in each case. Further, the %max stood at 3% in [4] and 33% in experiment [5].

For the compound `Cc1ccc(OCCCCCCOc2cccc(/C=C3\N=C4SCCCN4C3=O)c2)cc1`, the IC50 in experiment [1] was determined as 2.91 µM; in [6] it was 238 nM. The values for the Imax in experiment [1] and in experiment [7] were 86% and 81%, respectively. The Ki at Cannabinoid receptor 1 and at Cannabinoid receptor 2 was over 10 µM in each case. For the same compound, the inhibition on Cannabinoid receptor 1 was 9%; on Cannabinoid receptor 2 it was 12%. For the same compound, the EC50 in experiment [3] and in [5] was over 10 µM throughout. For the same compound, the %max in experiment [4] was -12%; in experiment [5], 35%.

With `Cc1ccc(CSC2=N/C(=C\c3cccc(OCc4ccc(Cl)cc4)c3)C(=O)N2)cc1`, the IC50 in [1] was over 10 µM; in experiment [6], over 10000 nM. Besides, the figures for the Imax in experiment [1] and in experiment [7] were 48% and 0%, respectively. The Ki on Cannabinoid receptor 1 and at Cannabinoid receptor 2 was over 10 µM in each case. The inhibition on Cannabinoid receptor 1 came to 38%; at Cannabinoid receptor 2, 22%. The EC50 in [3] and in [5] was over 10 µM throughout. The %max in experiment [4] was 4%; in experiment [5], -12%.

As to `O=C1/C(=C/c2cccc(OCCCCCCCCOc3ccc(Cl)cc3)c2)N=C2SCCCN12`, the IC50 in [1] was over 10 µM; in experiment [6], 1150 nM. Further, the Imax was 43% in experiment [1] and 124% in experiment [7]. Moreover, the inhibition constant Ki on Cannabinoid receptor 1 and on Cannabinoid receptor 2 was over 10 µM in each case. The inhibition was -9% on Cannabinoid receptor 1 and -3% on Cannabinoid receptor 2. Moreover, the EC50 in experiment [3] and in experiment [5] was over 10 µM each time. The figures for the %max in experiment [4] and in experiment [5] were -25% and -18%, respectively.

Turning to `CC(C)c1ccc(OCCCCCCOc2cccc(/C=C3\N=C4SCCCN4C3=O)c2)cc1`, the IC50 in experiment [1] was over 10 µM; in [6], over 10000 nM. For the same compound, the Imax in experiment [1] was 32%; in experiment [7], 24%. Moreover, the Ki at Cannabinoid receptor 1 and at Cannabinoid receptor 2 was over 10 µM in each case. The inhibition on Cannabinoid receptor 1 came out at 33%; at Cannabinoid receptor 2, 46%. The EC50 in experiment [3] and in experiment [5] was over 10 µM throughout. For the same compound, the %max in [4] came to 15%; in [5] it was 45%.

For the compound `O=C1/C(=C/c2cccc(OCCCCCOc3ccc(Cl)cc3)c2)N=C2SCCCN12`, the results for the IC50 in experiment [1] and in experiment [6] were 3.77 µM and 1140 nM, respectively. Besides, the Imax in experiment [1] amounted to 124%; in experiment [7], 123%. The Ki at Cannabinoid receptor 1 and on Cannabinoid receptor 2 was over 10 µM each time. The inhibition on Cannabinoid receptor 1 came to 8%. Besides, the EC50 in experiment [3] and in experiment [5] was over 10 µM each time. The %max is -38% in experiment [4] and -21% in experiment [5].

On to `O=C1/C(=C/c2cccc(OCCCOc3ccc(Cl)cc3)c2)N=C2SCCCN12`, for which the IC50 is over 10 µM in experiment [1] and 3250 nM in [6]. The results for the Imax in [1] and in [7] were 38% and 113%, respectively. In addition, the Ki at Cannabinoid receptor 1 and on Cannabinoid receptor 2 was over 10 µM in each case. For the same compound, the inhibition on Cannabinoid receptor 1 is 18%; on Cannabinoid receptor 2 it was -2%. The EC50 in [3] and in experiment [5] was over 10 µM throughout. In addition, the %max in [4] was -16%; in experiment [5], -36%.

For the compound `O=C1NC(SCc2ccc(Br)cc2)=N/C1=C\c1cccc(OCc2ccc(Cl)cc2)c1`, the IC50 in [1] is over 10 µM; in experiment [6], 2290 nM. Besides, the Imax in [1] stood at 36%; in [7], 44%. The Ki on Cannabinoid receptor 1 and at Cannabinoid receptor 2 was over 10 µM throughout. Moreover, the inhibition at Cannabinoid receptor 1 was 31%; on Cannabinoid receptor 2, 36%. Moreover, the EC50 in experiment [3] and in [5] was over 10 µM in each case. For the same compound, the %max in experiment [4] is -11%; in experiment [5], 13%.

As for `O=C1NC(SCc2ccc(Cl)cc2)=N/C1=C\c1cccc(OCc2ccc(Cl)cc2)c1`, the IC50 in experiment [1] is over 10 µM; in [6], over 10000 nM. Further, the Imax in experiment [1] stood at 41%; in experiment [7] it was 35%. In addition, the Ki on Cannabinoid receptor 1 and at Cannabinoid receptor 2 was over 10 µM each time. Moreover, the inhibition was determined as 36% at Cannabinoid receptor 1 and 30% on Cannabinoid receptor 2. The EC50 in [3] and in [5] was over 10 µM throughout. The %max in [4] was 5%; in experiment [5], -10%.

For `O=C1/C(=C/c2cccc(OCCCc3ccccc3)c2)N=C2SCCCN12`, the IC50 is 6.04 µM in experiment [1] and 1490 nM in experiment [6]. Further, the Imax in experiment [1] came to 132%; in experiment [7] it was 136%. Further, the Ki on Cannabinoid receptor 1 and at Cannabinoid receptor 2 was over 10 µM each time. The inhibition on Cannabinoid receptor 1 was 11%; at Cannabinoid receptor 2, 23%. The EC50 in [3] and in [5] was over 10 µM in each case. For the same compound, the values for the %max in experiment [4] and in experiment [5] were -30% and -49%, respectively.

For `Cc1ccc(CSC2=N/C(=C\c3cccc(OCc4ccc(Cl)cc4)c3)C(=O)N2C)cc1`, the half-inhibitory concentration (IC50) is over 10 µM in experiment [1] and over 10000 nM in experiment [6]. Moreover, the values for the Imax in experiment [1] and in [7] were 33% and 17%, respectively. Moreover, the Ki on Cannabinoid receptor 1 and at Cannabinoid receptor 2 was over 10 µM each time. For the same compound, the inhibition at Cannabinoid receptor 1 is 15%; on Cannabinoid receptor 2, 25%. Also, the EC50 in experiment [3] and in experiment [5] was over 10 µM throughout. Further, the values for the %max in experiment [4] and in experiment [5] were 7% and 20%, respectively.

As for `O=C1/C(=C/c2cccc(OCc3ccc(F)cc3)c2)N=C2SCCCN12`, the IC50 in [1] was 4.22 µM; in experiment [6], over 10000 nM. The Imax in [1] turned out to be 149%; in experiment [7], 3%. Also, the Ki on Cannabinoid receptor 1 and at Cannabinoid receptor 2 was over 10 µM each time. In addition, the values for the inhibition on Cannabinoid receptor 1 and on Cannabinoid receptor 2 were 35% and 46%, respectively. Moreover, the EC50 in experiment [3] and in experiment [5] was over 10 µM throughout. Moreover, the %max in [4] was 6%; in experiment [5], -30%.

As to `O=C1/C(=C/c2cccc(OCc3ccc(Cl)cc3)c2)N=C2SCCN12`, the figures for the half-maximal inhibitory concentration (IC50) in [1] and in experiment [6] were over 10 µM and over 10000 nM, respectively. In addition, the results for the Imax in [1] and in experiment [7] were 42% and 40%, respectively. Moreover, the Ki at Cannabinoid receptor 1 and at Cannabinoid receptor 2 was over 10 µM throughout. The inhibition stood at 18% on Cannabinoid receptor 1 and 28% on Cannabinoid receptor 2. Further, the EC50 in [3] and in [5] was over 10 µM each time. The figures for the %max in experiment [4] and in experiment [5] were 1% and -3%, respectively.

For the compound `O=C1N=C2SCCN2/C1=C\c1cccc(OCc2ccc(Cl)cc2)c1`, the IC50 in experiment [1] is over 10 µM; in experiment [6], over 10000 nM. Moreover, the Imax was found to be 19% in [1], 60% on Cannabinoid receptor 1 and 25% in experiment [7]. The Ki on Cannabinoid receptor 1 is 1.67 µM; on Cannabinoid receptor 2 it was over 10 µM. For the same compound, the EC50 in experiment [3] and in experiment [5] was over 10 µM in each case. Further, the values for the %max in experiment [4] and in [5] were 13% and 2%, respectively. Also, the inhibition at Cannabinoid receptor 2 came out at 41%.
